Experimental data taken from patent US5098888A, “New heterocyclic tripeptide compounds” (Adir et Compagnie, priority 1989, dated 1992).

How the values were obtained:
Assay type in all cases: in vivo
mice [1] = assay: Oxotremorine-induced tremor in mice
[2] = test system: synaptosomal high-affinity choline uptake (HACU); assay: Barbiturate-induced cholinergic deficit in rats
From the text: This sodium-dependent uptake normally constitutes the limiting factor in acetyl choline synthesis.

mice [3] = assay: Interaction with clonidine (cerebral survival time on sudden cardiac arrest caused by MgCl2); conditions: for antagonism of the effect of clonidine: simultaneously with clonidine

SMILES: Cn1cnc(C[C@H](NC(=O)[C@@H]2CCC(=O)N2)C(=O)N2[C@H]3CC[C@H](C3)[C@H]2C(N)=O)c1 [Example 1, (S)PyroGlu-(S)(N^.tau. -Me)His-(1S,3S,4R)ABH-NH2]
- induction of tremor by the compound itself (mice [1]; 10 mg/kg ip): without itself inducing tremor

SMILES: NC(=O)[C@@H]1CCCN1C(=O)[C@H](Cc1c[nH]cn1)NC(=O)[C@@H]1CCC(=O)N1 [TRH, pyroglutamylhistidylprolinamide]
- inhibition of narcosis ([2]; 10 mg/kg ip simultaneously with pentobarbital): does not inhibit the narcosis
- counteraction/inhibition of the fall in HACU induced by the barbiturate ([2]; 10 mg/kg ip simultaneously with pentobarbital 60 mg/kg ip, HACU measured after 20 minutes of narcosis): -35%
- boosting of the tremor (mice [1]; 3 mg/kg ip): no longer apparent
- boosting of the tremor (mice [1]; 10 mg/kg ip 30 minutes before oxotremorine 0.5 mg/kg ip, measured at peak of action): +90%
- boosting of the tremor (mice [1]; administered orally (Example 1: 10 mg/kg)): no boosting effect
- boosting effect in the presence of scopolamine (mice [1]; scopolamine 0.01 mg/kg): persists
- antagonism of the effect of clonidine (mice [3]; 1 mg/kg ip): -20%
- antagonism of the effect of clonidine (mice [3]; 3 mg/kg ip): -80%
- effect on its own in the test (mice [3]; without clonidine): without having an effect on its own

SMILES: Clc1cccc(Cl)c1N=C1NCCN1 [clonidine]
- increase in the cerebral survival time (mice [3]; sudden cardiac arrest caused by intravenous MgCl2): +60%

SMILES: CCCC(C)C1(CC)C(=O)NC(=O)NC1=O (stereo not drawn) [pentobarbital]
- fall in synaptosomal high-affinity choline uptake (HACU) ([2]; 60 mg/kg ip, after 20 minutes of narcosis): -48%
